These results are taken from ChEMBL document CHEMBL3259785, “Recent advances in the discovery of small molecules targeting exchange proteins directly activated by cAMP (EPAC)” (J Med Chem, 2014).

Molecules are shown by their SMILES.

The target of test [1] is T1, Rap guanine nucleotide exchange factor 4 (Homo sapiens, UniProt Q8WZA2). The experiment in a line: Displacement of 8-NBD-cAMP from EPAC2 (unknown origin) by fluorescence plate reader analysis.
Test [2] deals with T2, Rap guanine nucleotide exchange factor 3 (Homo sapiens, UniProt O95398).
T2 sequence (O95398 whole entry): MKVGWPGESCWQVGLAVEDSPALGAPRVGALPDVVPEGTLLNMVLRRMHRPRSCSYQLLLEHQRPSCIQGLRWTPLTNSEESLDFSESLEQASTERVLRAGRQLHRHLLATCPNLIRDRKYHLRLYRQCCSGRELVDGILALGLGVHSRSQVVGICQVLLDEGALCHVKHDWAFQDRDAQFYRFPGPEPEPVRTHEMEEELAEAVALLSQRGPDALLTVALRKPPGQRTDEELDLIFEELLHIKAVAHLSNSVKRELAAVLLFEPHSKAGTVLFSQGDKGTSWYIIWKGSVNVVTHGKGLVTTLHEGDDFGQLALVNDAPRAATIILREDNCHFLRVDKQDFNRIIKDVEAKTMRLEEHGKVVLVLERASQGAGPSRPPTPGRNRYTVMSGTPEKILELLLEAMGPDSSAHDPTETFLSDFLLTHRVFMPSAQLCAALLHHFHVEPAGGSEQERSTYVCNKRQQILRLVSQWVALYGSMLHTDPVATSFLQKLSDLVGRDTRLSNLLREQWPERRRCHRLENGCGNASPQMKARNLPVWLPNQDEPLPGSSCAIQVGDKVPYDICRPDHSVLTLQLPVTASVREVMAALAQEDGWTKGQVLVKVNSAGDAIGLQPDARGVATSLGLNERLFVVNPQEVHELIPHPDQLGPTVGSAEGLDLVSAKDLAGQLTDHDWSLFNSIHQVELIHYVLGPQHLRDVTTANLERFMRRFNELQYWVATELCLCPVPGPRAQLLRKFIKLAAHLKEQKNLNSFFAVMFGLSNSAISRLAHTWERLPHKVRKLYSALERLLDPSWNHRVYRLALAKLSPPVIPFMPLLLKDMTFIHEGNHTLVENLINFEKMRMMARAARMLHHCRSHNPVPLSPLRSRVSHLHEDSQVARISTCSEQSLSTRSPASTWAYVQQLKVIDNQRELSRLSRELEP
Nature of the test: Inhibition of EPAC1 (unknown origin) assessed as cAMP-mediated GEF activity.

Test [3] deals with T1, Rap guanine nucleotide exchange factor 4. The experiment in a line: Inhibition of EPAC2 (unknown origin).

T1 sequence (Q8WZA2 whole entry): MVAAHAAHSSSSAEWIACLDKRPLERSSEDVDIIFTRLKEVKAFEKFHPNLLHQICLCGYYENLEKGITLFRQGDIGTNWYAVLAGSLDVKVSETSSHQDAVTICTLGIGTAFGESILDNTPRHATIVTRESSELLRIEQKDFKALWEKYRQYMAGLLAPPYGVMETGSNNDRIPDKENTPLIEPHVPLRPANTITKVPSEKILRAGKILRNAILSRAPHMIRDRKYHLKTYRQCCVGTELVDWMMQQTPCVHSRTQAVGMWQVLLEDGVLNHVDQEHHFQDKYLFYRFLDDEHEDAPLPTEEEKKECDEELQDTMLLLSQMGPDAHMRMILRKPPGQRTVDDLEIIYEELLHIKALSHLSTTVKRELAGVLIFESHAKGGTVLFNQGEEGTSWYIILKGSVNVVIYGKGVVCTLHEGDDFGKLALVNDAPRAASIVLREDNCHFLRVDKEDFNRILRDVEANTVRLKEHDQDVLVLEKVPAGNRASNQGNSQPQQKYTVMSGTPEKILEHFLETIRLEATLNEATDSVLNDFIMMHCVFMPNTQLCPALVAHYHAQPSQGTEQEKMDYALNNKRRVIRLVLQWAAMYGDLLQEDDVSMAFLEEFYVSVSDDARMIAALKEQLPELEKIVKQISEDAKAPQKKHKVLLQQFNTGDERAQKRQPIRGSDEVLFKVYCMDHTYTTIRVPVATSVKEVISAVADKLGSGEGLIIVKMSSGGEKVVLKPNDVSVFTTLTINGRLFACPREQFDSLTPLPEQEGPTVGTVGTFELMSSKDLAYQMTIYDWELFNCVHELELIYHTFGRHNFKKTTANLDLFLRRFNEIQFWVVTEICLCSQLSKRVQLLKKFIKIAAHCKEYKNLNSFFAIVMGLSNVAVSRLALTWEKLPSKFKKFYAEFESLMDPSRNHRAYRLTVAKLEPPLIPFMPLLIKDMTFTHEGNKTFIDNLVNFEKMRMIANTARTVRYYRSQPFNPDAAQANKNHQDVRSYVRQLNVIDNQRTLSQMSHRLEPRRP

Consider `O=S(=O)(O)c1ccc2c(/N=N/c3c(O)ccc4ccccc34)cccc2c1`, for which the IC50 (as a rule, the concentration needed to halve the response being measured) in test [1] came out at 1.7 µM.
Take `CC(C)(C)c1cc(C(=O)/C(C#N)=N/Nc2cccc(Cl)c2)no1`: the results for the IC50 in test [1] and in test [2] were 7 µM and 3.2 µM, respectively.
For `COCCC[n+]1c(C)csc1Nc1c(C)cc(C)cc1C`, in test [3], the IC50 was 0.6 µM.
For `O=C1C=CC2=C(Oc3c(ccc(O)c3O)/C2=C/C=C(O)O)C1=O`, the IC50 in test [1] is 3.8 µM.
On to `N#Cc1c(NC(=O)C(F)(F)F)sc2c3c(=O)c4ccccc4c(=O)c=3oc3ccccc3c12`, for which the IC50 in test [1] turned out to be 7.9 µM.
